Assays:
[1] = DRUGMATRIX: Serotonin (5-Hydroxytryptamine) 5-HT3 radioligand binding (ligand: [3H] GR-65630); assay type: cell membranes, Membrane; settings: hek293; Not Active = under 50% inhibition at 10 µM
[2] = target: T1, C-C chemokine receptor type 4 (Homo sapiens, UniProt P51679); assay type: cell membranes, Membrane; settings: chem-1; further: in other assays of this panel Not Active means under 50% inhibition at 10 µM
T1 sequence (P51679 whole entry): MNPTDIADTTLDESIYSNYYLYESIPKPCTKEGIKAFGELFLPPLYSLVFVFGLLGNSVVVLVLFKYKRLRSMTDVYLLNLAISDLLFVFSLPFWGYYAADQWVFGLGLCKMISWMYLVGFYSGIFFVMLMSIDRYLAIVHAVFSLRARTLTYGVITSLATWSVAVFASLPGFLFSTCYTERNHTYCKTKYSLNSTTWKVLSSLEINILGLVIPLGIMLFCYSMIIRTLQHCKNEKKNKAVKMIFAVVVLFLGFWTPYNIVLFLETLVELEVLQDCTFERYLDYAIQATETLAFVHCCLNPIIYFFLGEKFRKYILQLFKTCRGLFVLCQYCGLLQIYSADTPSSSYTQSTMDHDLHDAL

[3] = target: C-C chemokine receptor type 5 (Homo sapiens, UniProt P51681); assay type: cell membranes, Membrane; settings: hek293; further: in other assays of this panel Not Active means under 50% inhibition at 10 µM
[4] = target: Glycine receptor (Rattus norvegicus, UniProt P22771+P24524+P07727+P20781); assay type: cell membranes, Wistar, Spinal cord, Membrane; further: in other assays of this panel Not Active means under 50% inhibition at 10 µM
[5] = target: Melanocortin receptor 4 (Homo sapiens, UniProt P32245); assay type: cell membranes, Membrane; settings: hek293; further: in other assays of this panel Not Active means under 50% inhibition at 10 µM
[6] = target: cGMP-specific 3',5'-cyclic phosphodiesterase (Homo sapiens, UniProt O76074); assay: DRUGMATRIX: Phosphodiesterase PDE5 enzyme inhibition (substrate: [3H]cGMP + cGMP); assay type: tissue-based, Platelet; settings: platelet; Not Active = under 50% inhibition at 10 µM
[7] = target: Receptor tyrosine-protein kinase erbB-2 (Homo sapiens, UniProt P04626); assay: biochemical; assay type: cell-based, Insect cells; settings: insect cells
[8] = target: Cytochrome P450 2C19 (Homo sapiens, UniProt P33261); settings: bti-tn-5b1-4; further: in other assays of this panel Not Active means under 50% inhibition at 10 µM
Cytochrome P450 2C19, sequence (P33261 whole entry): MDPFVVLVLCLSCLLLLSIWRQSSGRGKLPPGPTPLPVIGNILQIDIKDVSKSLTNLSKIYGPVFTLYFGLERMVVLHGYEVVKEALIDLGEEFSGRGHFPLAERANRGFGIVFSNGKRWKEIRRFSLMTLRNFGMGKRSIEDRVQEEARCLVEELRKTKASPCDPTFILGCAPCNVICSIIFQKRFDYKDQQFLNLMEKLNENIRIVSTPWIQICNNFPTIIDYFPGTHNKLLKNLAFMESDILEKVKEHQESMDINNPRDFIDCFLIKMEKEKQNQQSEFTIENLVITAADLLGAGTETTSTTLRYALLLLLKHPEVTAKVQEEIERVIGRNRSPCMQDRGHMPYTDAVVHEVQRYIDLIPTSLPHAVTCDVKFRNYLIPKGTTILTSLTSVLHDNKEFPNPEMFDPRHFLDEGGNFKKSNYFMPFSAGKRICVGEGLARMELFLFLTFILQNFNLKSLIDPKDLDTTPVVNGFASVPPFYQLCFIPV

Melanocortin receptor 4, sequence (P32245 whole entry): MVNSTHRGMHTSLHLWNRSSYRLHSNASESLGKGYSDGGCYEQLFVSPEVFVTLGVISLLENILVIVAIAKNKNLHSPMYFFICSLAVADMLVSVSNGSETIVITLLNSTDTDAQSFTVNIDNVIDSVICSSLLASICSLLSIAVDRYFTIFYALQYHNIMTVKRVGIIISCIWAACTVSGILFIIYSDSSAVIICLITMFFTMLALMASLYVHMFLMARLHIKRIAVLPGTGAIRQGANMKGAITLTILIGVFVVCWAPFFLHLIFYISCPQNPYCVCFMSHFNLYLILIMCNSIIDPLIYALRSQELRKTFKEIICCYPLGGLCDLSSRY
Receptor tyrosine-protein kinase erbB-2, sequence (P04626 whole entry): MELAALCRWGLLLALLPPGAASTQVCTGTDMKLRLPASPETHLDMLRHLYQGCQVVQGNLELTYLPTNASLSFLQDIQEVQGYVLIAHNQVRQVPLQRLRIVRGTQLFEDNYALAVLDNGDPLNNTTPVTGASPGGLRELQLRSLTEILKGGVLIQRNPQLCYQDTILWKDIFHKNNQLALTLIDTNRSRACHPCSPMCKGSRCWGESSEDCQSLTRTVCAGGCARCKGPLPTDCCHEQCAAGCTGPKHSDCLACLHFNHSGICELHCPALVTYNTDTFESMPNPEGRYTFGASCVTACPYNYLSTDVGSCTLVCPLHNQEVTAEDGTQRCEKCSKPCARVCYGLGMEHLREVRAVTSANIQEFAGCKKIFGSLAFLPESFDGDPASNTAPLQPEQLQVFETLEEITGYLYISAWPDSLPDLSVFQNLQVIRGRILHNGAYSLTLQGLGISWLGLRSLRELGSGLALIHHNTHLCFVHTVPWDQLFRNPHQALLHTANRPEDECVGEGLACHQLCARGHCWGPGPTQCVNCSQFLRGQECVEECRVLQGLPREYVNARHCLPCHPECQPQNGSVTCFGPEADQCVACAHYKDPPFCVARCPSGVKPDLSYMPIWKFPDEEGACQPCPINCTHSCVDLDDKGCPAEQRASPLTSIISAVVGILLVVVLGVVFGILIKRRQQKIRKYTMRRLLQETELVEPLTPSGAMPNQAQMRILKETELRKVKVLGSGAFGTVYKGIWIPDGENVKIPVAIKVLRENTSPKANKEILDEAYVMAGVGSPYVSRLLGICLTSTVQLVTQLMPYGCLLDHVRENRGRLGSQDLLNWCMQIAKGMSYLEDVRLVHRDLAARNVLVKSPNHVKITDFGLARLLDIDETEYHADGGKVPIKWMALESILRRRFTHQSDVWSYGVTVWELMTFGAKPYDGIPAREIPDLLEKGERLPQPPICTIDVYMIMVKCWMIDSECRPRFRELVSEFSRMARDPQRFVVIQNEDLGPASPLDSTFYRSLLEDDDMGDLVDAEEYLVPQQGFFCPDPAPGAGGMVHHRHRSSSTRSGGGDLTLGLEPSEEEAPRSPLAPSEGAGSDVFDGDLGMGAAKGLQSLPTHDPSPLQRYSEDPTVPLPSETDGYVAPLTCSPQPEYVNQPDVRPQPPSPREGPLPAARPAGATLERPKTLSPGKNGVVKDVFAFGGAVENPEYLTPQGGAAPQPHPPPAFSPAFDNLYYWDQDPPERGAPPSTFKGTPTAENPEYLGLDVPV
C-C chemokine receptor type 5, sequence (P51681 whole entry): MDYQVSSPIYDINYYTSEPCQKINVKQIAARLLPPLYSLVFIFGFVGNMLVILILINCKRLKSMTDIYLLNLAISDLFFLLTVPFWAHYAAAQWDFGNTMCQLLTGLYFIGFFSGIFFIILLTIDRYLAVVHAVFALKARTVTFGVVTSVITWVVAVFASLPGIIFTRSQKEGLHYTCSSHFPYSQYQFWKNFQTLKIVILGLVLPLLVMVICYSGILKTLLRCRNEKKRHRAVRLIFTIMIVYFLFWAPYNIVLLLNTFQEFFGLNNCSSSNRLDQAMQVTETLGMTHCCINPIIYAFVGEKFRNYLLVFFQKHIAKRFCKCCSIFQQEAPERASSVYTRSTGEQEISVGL

CC[C@H]1[C@@H]2C[C@H]3[C@@H]4N(C)c5ccccc5[C@]45C[C@@H]([C@@H]2[C@H]5O)N3[C@@H]1O [AJMALINE]
Not Active: IC50 [1] | Ki [1] | IC50 [2] | IC50 [3] | IC50 [4] | IC50 [5] | IC50 [6] | IC50 [7] | IC50 [8] | Ki [8]

NCCCNCCSP(=O)(O)O [AMIFOSTINE]
Not Active: IC50 [1] | Ki [1] | IC50 [2] | IC50 [3] | IC50 [4] | IC50 [5] | IC50 [6] | IC50 [7] | IC50 [8] | Ki [8]

CN(C)CCC=C1c2ccccc2CCc2ccccc21 [AMITRIPTYLINE]
Not Active: IC50 [1] | Ki [1] | IC50 [2] | IC50 [3] | IC50 [4] | IC50 [5] | IC50 [6] | IC50 [7] | IC50 [8] | Ki [8]

CC(=O)Oc1ccccc1C(=O)O [ASPIRIN]
Not Active: IC50 [1] | Ki [1] | IC50 [2] | IC50 [3] | IC50 [4] | IC50 [5] | IC50 [6] | IC50 [7] | IC50 [8] | Ki [8]

CC(=O)OC[C@H]1O[C@@H](n2ncc(=O)[nH]c2=O)[C@H](OC(C)=O)[C@@H]1OC(C)=O [AZARIBINE]
Not Active: IC50 [1] | Ki [1] | IC50 [2] | IC50 [3] | IC50 [4] | IC50 [5] | IC50 [6] | IC50 [7] | IC50 [8] | Ki [8]

C[C@H]1[C@H](NC(=O)/C(=N\OC(C)(C)C(=O)O)c2csc(N)n2)C(=O)N1S(=O)(=O)O [AZTREONAM]
Not Active: IC50 [1] | Ki [1] | IC50 [2] | IC50 [3] | IC50 [4] | IC50 [5] | IC50 [6] | IC50 [7] | IC50 [8] | Ki [8]

O=C(O)CCNC(=O)c1ccc(/N=N/c2ccc(O)c(C(=O)O)c2)cc1 [BALSALAZIDE]
Not Active: IC50 [1] | Ki [1] | IC50 [2] | IC50 [3] | IC50 [4] | IC50 [5] | IC50 [6] | IC50 [7] | IC50 [8] | Ki [8]

COc1cc(OC)c(C(=O)CCCN2CCCC2)c(OC)c1 [BUFLOMEDIL]
Not Active: IC50 [1] | Ki [1] | IC50 [2] | IC50 [3] | IC50 [4] | IC50 [5] | IC50 [6] | IC50 [7] | IC50 [8] | Ki [8]

Cn1c(=O)c2c(ncn2C)n(C)c1=O [CAFFEINE]
Not Active: IC50 [1] | Ki [1] | IC50 [2] | IC50 [3] | IC50 [4] | IC50 [5] | IC50 [6] | IC50 [7] | IC50 [8] | Ki [8]

ClC(Cl)(Cl)Cl [CARBON TETRACHLORIDE]
Not Active: IC50 [1] | Ki [1] | IC50 [2] | IC50 [3] | IC50 [4] | IC50 [5] | IC50 [6] | IC50 [7] | IC50 [8] | Ki [8]

CO/N=C(\C(=O)N[C@@H]1C(=O)N2C(C(=O)O)=C(COC(C)=O)CS[C@H]12)c1csc(N)n1 [CEFOTAXIME]
Not Active: IC50 [1] | Ki [1] | IC50 [2] | IC50 [3] | IC50 [4] | IC50 [5] | IC50 [6] | IC50 [7] | IC50 [8] | Ki [8]

CNC1=Nc2ccc(Cl)cc2C(c2ccccc2)=[N+]([O-])C1 [CHLORDIAZEPOXIDE]
Not Active: IC50 [1] | Ki [1] | IC50 [2] | IC50 [3] | IC50 [4] | IC50 [5] | IC50 [6] | IC50 [7] | IC50 [8] | Ki [8]

Cc1cc(O)cc(C)c1Cl [CHLOROXYLENOL]
Not Active: IC50 [1] | Ki [1] | IC50 [2] | IC50 [3] | IC50 [4] | IC50 [5] | IC50 [6] | IC50 [7] | IC50 [8] | Ki [8]

CCCNC(=O)NS(=O)(=O)c1ccc(Cl)cc1 [CHLORPROPAMIDE]
Not Active: IC50 [1] | Ki [1] | IC50 [2] | IC50 [3] | IC50 [4] | IC50 [5] | IC50 [6] | IC50 [7] | IC50 [8] | Ki [8]

NS(=O)(=O)c1cc(C2(O)NC(=O)c3ccccc32)ccc1Cl (stereo not given) [CHLORTHALIDONE]
Not Active: IC50 [1] | Ki [1] | IC50 [2] | IC50 [3] | IC50 [4] | IC50 [5] | IC50 [6] | IC50 [7] | IC50 [8] | Ki [8]

O=C(O)CC(O)(CC(=O)O)C(=O)O [CITRIC ACID]
Not Active: IC50 [1] | Ki [1] | IC50 [2] | IC50 [3] | IC50 [4] | IC50 [5] | IC50 [6] | IC50 [7] | IC50 [8] | Ki [8]

CC(C)NCC(O)c1ccccc1Cl (stereo not given) [CLORPRENALINE]
Not Active: IC50 [1] | Ki [1] | IC50 [2] | IC50 [3] | IC50 [4] | IC50 [5] | IC50 [6] | IC50 [7] | IC50 [8] | Ki [8]

CN1CCN(C(c2ccccc2)c2ccccc2)CC1 [CYCLIZINE]
Not Active: IC50 [1] | Ki [1] | IC50 [2] | IC50 [3] | IC50 [4] | IC50 [5] | IC50 [6] | IC50 [7] | IC50 [8] | Ki [8]

CN1C[C@@H]2C[C@H]1CN2c1cc2c(cc1F)c(=O)c(C(=O)O)cn2C1CC1 [DANOFLOXACIN]
Not Active: IC50 [1] | Ki [1] | IC50 [2] | IC50 [3] | IC50 [4] | IC50 [5] | IC50 [6] | IC50 [7] | IC50 [8] | Ki [8]
